Measurements taken from publication PMC5744064, “Regulation of Class A β-Lactamase CzoA by CzoR and IscR in Comamonas testosteroni S44” (Frontiers in Microbiology, 2017).
Converted amounts (≈) assume the structure as drawn.

System: T1, C. testosteroni S44
T1 construct: S44
Assay: organism not typed
Parameters: species or system Comamonas testosteroni S44; Broth dilution MIC in Mueller-Hinton broth, bacterial growth inhibition (CLSI)
Settings: wild-type S44, MH broth
Experimental: Minimal inhibitory concentration profiles of the recombinant E. coli DH5α ([Miller and Mekalanos, 1988]) expressing czoA (pCT-Zori::czoA) and the isogenic strains of C. testosteroni S44 (S44, ΔczoR, ΔczoR-C, ΔiscR, and ΔiscR-C) were determined by the broth dilution method ([Clinical and Laboratory Standards Institute, 2014]) using 11 β-lactams. For the recombinant E. coli DH5α, two β-lactamase inhibitors, clavulanic acid, and tazobactam were also tested. E. coli DH5α (pCT-Zori) was used as a control. Clavulanic acid and tazobactam were generally fixed at a concentration of 2 and 4 μg/ml, respectively ([Girlich et al., 2007]; [Naas et al., 2007]; [Lamoureaux et al., 2013]; [Clinical and Laboratory Standards Institute, 2014]). Moreover, growth tendency of the isogenic strains of S44 under stress of 11 β-lactams with concentration below MIC was evaluated through OD600 values. Isogenic strains of C. testosteroni S44 in exponential growth phase were inoculated with each of 11 β-lactams in MH medium at 37°C and OD600 values were determined using a spectrophotometer after growth for 24 h. Bacterial strains, plasmids, and [compound left out] primers used in this study are shown in Supplementary Table S1. All strains were grown at 37°C in Luria-Bertani (LB, Oxoid, United Kingdom) broth unless otherwise stated. Mueller-Hinton (MH, Beijing Land Bridge Technology, China) broth dilution was used to determine the minimal inhibitory concentration (MIC) of antibiotics. Antibiotic disk (Hangzhou Microbial Reagent, China) diffusion tests were used for the antibiotic susceptibility assay (cephalexin and cefazolin). […] Then, the seed [compound left out] was used directly in relevant experiments.

SMILES: CO/N=C(\C(=O)N[C@@H]1C(=O)N2C(C(=O)O)=C(CSc3nc(=O)c(=O)[nH]n3C)CS[C@H]12)c1csc(N)n1 [Ceftriaxone]
- MIC: > 1020 µg/mL

SMILES: C[C@@H](O)[C@H]1C(=O)N2C(C(=O)O)=C(SCCNC=N)C[C@H]12 [Imipenem]
- MIC: 8 µg/mL (≈ 26.7 µM)

SMILES: CC1(C)S[C@@H]2[C@H](NC(=O)Cc3ccccc3)C(=O)N2[C@H]1C(=O)O [Benzylpenicillin]
- MIC: > 2050 µg/mL

SMILES: CO[C@@]1(NC(=O)Cc2cccs2)C(=O)N2C(C(=O)O)=C(COC(N)=O)CS[C@@H]21 [Cefoxitin]
- MIC: 128 µg/mL (≈ 299 µM)

SMILES: Cc1nnc(SCC2=C(C(=O)O)N3C(=O)[C@@H](NC(=O)Cn4cnnn4)[C@H]3SC2)s1 [Cefazolin]
- MIC: > 2050 µg/mL

SMILES: CC1(C)S[C@@H]2[C@H](NC(=O)[C@H](N)c3ccccc3)C(=O)N2[C@H]1C(=O)O [Ampicillin]
- MIC: > 2050 µg/mL

SMILES: CC1=C(C(=O)O)N2C(=O)[C@@H](NC(=O)[C@H](N)c3ccccc3)[C@H]2SC1 [Cefalexin]
- MIC: > 1020 µg/mL

SMILES: C[C@@H](O)[C@H]1C(=O)N2C(C(=O)O)=C(S[C@@H]3CN[C@H](C(=O)N(C)C)C3)[C@H](C)[C@H]12 [Meropenem]
- MIC: 1 µg/mL (≈ 2.61 µM)

SMILES: CC(C)(O/N=C(\C(=O)N[C@@H]1C(=O)N2C(C(=O)[O-])=C(C[n+]3ccccc3)CS[C@H]12)c1csc(N)n1)C(=O)O [Ceftazidime]
- MIC: 128 µg/mL (≈ 234 µM)

SMILES: CO/N=C(\C(=O)N[C@@H]1C(=O)N2C(C(=O)O)=C(COC(N)=O)CS[C@H]12)c1ccco1 [Cefuroxime]
- MIC: > 128 µg/mL

SMILES: CO/N=C(\C(=O)N[C@@H]1C(=O)N2C(C(=O)[O-])=C(C[N+]3(C)CCCC3)CS[C@H]12)c1csc(N)n1 [Cefepime]
- MIC: > 512 µg/mL
